Legend:
[1] = Stability of Ramipril on exposure to stomach juices / acid pH; format: physicochemical
[2] = oral administration, fasted state; cited from earlier work
[3] = cited from earlier work

Structure (SMILES)	Stability on exposure to stomach juices (acid pH) [1]	Time to peak plasma concentrations [2]	Absorption in the presence of food [3]
CCOC(=O)[C@H](CCc1ccccc1)N[C@@H](C)C(=O)N1[C@H](C(=O)O)C[C@@H]2CCC[C@@H]21 [Ramipril, (2S,3aS,6aS)-1[(S)-N-[(S)-1-carboxy-3-phenylpropyl]alanyl]octahydrocyclopenta[b]pyrrole-2-carboxylic acid, 1-ethyl ester]	breaks down	one	–
CC(=O)Oc1ccccc1C(=O)O [aspirin]	–	–	delayed
